Broadly, the CC50 is the concentration at which the toxic effect on the cells reaches its halfway point. A word on the EC50: it is the concentration that produces a half-maximal response.

These results are taken from US12594276B2, “Inhibitors of human immunodeficiency virus replication” (ViiV Healthcare UK (No.5) Limited, priority 2024, dated 2026).

The nature of data set [1]: Compound cytotoxicity, XTT-based colorimetric assay. In kind it is cell-based. To be noted: human; uninfected MT2 cells, day 4, XTT; read-out: CC50. The gist of the method:
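Uninfected MT2 cells, antiviral-assay protocol without virus; XTT colorimetric readout day 4; CC50 reported.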

Data set [2] deals with recombinant NL4-3 virus (nef section replaced with Renilla luciferase gene) in MT-2 cells. Description: HIV cell culture assay (antiviral activity, luciferase readout). To be noted: Renilla, NL43, MT-2 cells infected for 4-5 days with recombinant NL4-3 Renilla luciferase virus. Type of data set: cell-based. The gist of the method: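 Reporter virus is produced in 293T cells and its titer set in MT-2 cells by luciferase activity. MT-2 cells are then infected in the presence of serially diluted compound for 4-5 days. Luciferase is quantified and EC50 fitted to the median effect equation.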

Consider `Cc1cc(C2CCC(F)(F)CC2)nc2nc([C@H](Cc3cc(F)cc(F)c3)NC(=O)Cn3nc(C4CC4)c4c3C[C@@H]3C[C@H]43)n(-c3ccc(Cl)c4c(NS(C)(=O)=O)nn(CC(=O)N5CC(C)(C)OC(C)(C)C5)c34)c(=O)c12` (atropisomer, axis not shown; (P)) [Example 396, N-[(1S)-1-[(3P)-3-{4-chloro-3-methanesulfonamido-1-[2-oxo-2-(2,2,6,6-tetramethylmorpholin-4-yl)ethyl]-1H-indazol-7-yl}-7-(4,4-difluorocyclohexyl)-5-methyl-4-oxo-3H,4H-pyrido[2,3-d]pyrimidin-2-yl]-2-(3,5-difluorophenyl)ethyl]-2-[(2S,4S)-9-cyclopropyl-7,8-diazatricyclo[4.3.0.0^2,^4]nona-1(6),8-dien-7-yl]acetamide], for which the CC50 at 4 days in data set [1] was over 20 nM. Moreover, in data set [2], the EC50 was found to be 0.02 nM.
On the same counts, the results for `COCCN(CCOC)C(=O)Cn1nc(NS(C)(=O)=O)c2c(Cl)ccc(-n3c([C@H](Cc4cc(F)cc(F)c4)NC(=O)Cn4nc(C(F)F)c5c4C(F)(F)[C@@H]4C[C@H]54)nc4nc(C5CCC(F)(F)CC5)cc(C)c4c3=O)c21` (atropisomer, axis not shown; (P)) [Example 401, 2-[(6P)-4-chloro-7-[7-(4,4-difluorocyclohexyl)-2-[(1S)-1-{2-[(2S,4R)-9-(difluoromethyl)-5,5-difluoro-7,8-diazatricyclo[4.3.0.02, 4]nona-1(6),8-dien-7-yl]acetamido}-2-(3,5-difluorophenyl)ethyl]-5-methyl-4-oxo-3H,4H-pyrido[2,3-d]pyrimidin-3-yl]-3-methanesulfonamido-1H-indazol-1-yl]-N,N-bis(2-methoxyethyl)acetamide] are over 20 nM and 0.012 nM.
On the same counts, the results for `Cc1cc(C2CCC(F)(F)CC2)nc2nc([C@H](Cc3cc(F)cc(F)c3)NC(=O)Cn3nc(C(F)F)c4c3C(F)(F)[C@@H]3C[C@H]43)n(-c3ccc(Cl)c4c(NS(C)(=O)=O)nn(CC(=O)N(C)[C@@H]5CCOC5)c34)c(=O)c12` (atropisomer, axis not shown; (P)) [Example 405, N-[(1S)-1-[(3P)-3-[4-chloro-3-methanesulfonamido-1-({methyl[(3R)-oxolan-3-yl]carbamoyl}methyl)-1H-indazol-7-yl]-7-(4,4-difluorocyclohexyl)-5-methyl-4-oxo-3H,4H-pyrido[2,3-d]pyrimidin-2-yl]-2-(3,5-difluorophenyl)ethyl]-2-[(2S,4R)-9-(difluoromethyl)-5,5-difluoro-7,8-diazatricyclo[4.3.0.0^2,^4]nona-1(6),8-dien-7-yl]acetamide] are over 20 nM and 0.034 nM.
The like results for `Cc1cc(C2CCC(F)(F)CC2)nc2nc([C@H](Cc3cc(F)cc(F)c3)NC(=O)Cn3nc(C(F)F)c4c3C(F)(F)[C@@H]3C[C@H]43)n(-c3ccc(Cl)c4c(NS(C)(=O)=O)nn(CC(=O)N5C[C@H]6C[C@H]6C5)c34)c(=O)c12` (atropisomer, axis not shown; (P)) [Example 409, N-[(1S)-1-[(3P)-3-(1-{2-[(1R,5S)-3-azabicyclo[3.1.0]hexan-3-yl]-2-oxoethyl}-4-chloro-3-methanesulfonamido-1H-indazol-7-yl)-7-(4,4-difluorocyclohexyl)-5-methyl-4-oxo-3H,4H-pyrido[2,3-d]pyrimidin-2-yl]-2-(3,5-difluorophenyl)ethyl]-2-[(2S,4R)-9-(difluoromethyl)-5,5-difluoro-7,8-diazatricyclo[4.3.0.0^2,^4]nona-1(6),8-dien-7-yl]acetamide] were, in that order, over 20 nM and 0.014 nM.
Regarding `COCCNc1cc(C2CCC(F)(F)CC2)nc2nc([C@H](Cc3cc(F)cc(F)c3)NC(=O)Cn3nc(C(F)F)c4c3C(F)(F)[C@@H]3C[C@H]43)n(-c3ccc(Cl)c4c(NS(C)(=O)=O)nn(CCN5CCC(F)(F)CC5)c34)c(=O)c12` (atropisomer, axis not shown; (P)) [Example 413, N-[(1S)-1-[(3P)-3-{4-chloro-1-[2-(4,4-difluoropiperidin-1-yl)ethyl]-3-methanesulfonamido-1H-indazol-7-yl}-7-(4,4-difluorocyclohexyl)-5-[(2-methoxyethyl)amino]-4-oxo-3H,4H-pyrido[2,3-d]pyrimidin-2-yl]-2-(3,5-difluorophenyl)ethyl]-2-[(2S,4R)-9-(difluoromethyl)-5,5-difluoro-7,8-diazatricyclo[4.3.0.0^2,^4]nona-1(6),8-dien-7-yl]acetamide], the CC50 at 4 days in data set [1] was over 20 nM. Also, the EC50 in data set [2] was 0.013 nM.
On the same counts, the results for `COCCNc1cc(C2CCC(F)(F)CC2)nc2nc([C@H](Cc3cc(F)cc(F)c3)NC(=O)Cn3nc(C(F)F)c4c3C(F)(F)[C@@H]3C[C@H]43)n(-c3ccc(Cl)c4c(NS(C)(=O)=O)nn(CCN5C[C@H](F)C[C@H](F)C5)c34)c(=O)c12` (atropisomer, axis not shown; (P)) [Example 414, N-[(1S)-1-[(3P)-3-(4-chloro-1-{2-[(3R,5S)-3,5-difluoropiperidin-1-yl]ethyl}-3-methanesulfonamido-1H-indazol-7-yl)-7-(4,4-difluorocyclohexyl)-5-[(2-methoxyethyl)amino]-4-oxo-3H,4H-pyrido[2,3-d]pyrimidin-2-yl]-2-(3,5-difluorophenyl)ethyl]-2-[(2S,4R)-9-(difluoromethyl)-5,5-difluoro-7,8-diazatricyclo[4.3.0.0^2,^4]nona-1(6),8-dien-7-yl]acetamide] are over 20 nM and 0.01 nM.
On the same counts, the results for `COCCNc1cc(C2CCC(F)(F)CC2)nc2nc([C@H](Cc3cc(F)cc(F)c3)NC(=O)Cn3nc(C(F)F)c4c3C(F)(F)[C@@H]3C[C@H]43)n(-c3ccc(Cl)c4c(NS(C)(=O)=O)nn(CCN5CCC(F)CC5)c34)c(=O)c12` (atropisomer, axis not shown; (P)) [Example 415, N-[(1S)-1-[(3P)-3-{4-chloro-1-[2-(4-fluoropiperidin-1-yl)ethyl]-3-methanesulfonamido-1H-indazol-7-yl}-7-(4,4-difluorocyclohexyl)-5-[(2-methoxyethyl)amino]-4-oxo-3H,4H-pyrido[2,3-d]pyrimidin-2-yl]-2-(3,5-difluorophenyl)ethyl]-2-[(2S,4R)-9-(difluoromethyl)-5,5-difluoro-7,8-diazatricyclo[4.3.0.0^2,^4]nona-1(6),8-dien-7-yl]acetamide] are over 20 nM and 0.013 nM.
With `COCCNc1cc(C2CCC(F)(F)CC2)nc2nc([C@H](Cc3cc(F)cc(F)c3)NC(=O)Cn3nc(C(F)F)c4c3C(F)(F)[C@@H]3C[C@H]43)n(-c3ccc(Cl)c4c(NS(C)(=O)=O)nn(CCN5CCCC(F)(F)C5)c34)c(=O)c12` (atropisomer, axis not shown; (P)) [Example 416, N-[(1S)-1-[(3P)-3-{4-chloro-1-[2-(3,3-difluoropiperidin-1-yl)ethyl]-3-methanesulfonamido-1H-indazol-7-yl}-7-(4,4-difluorocyclohexyl)-5-[(2-methoxyethyl)amino]-4-oxo-3H,4H-pyrido[2,3-d]pyrimidin-2-yl]-2-(3,5-difluorophenyl)ethyl]-2-[(2S,4R)-9-(difluoromethyl)-5,5-difluoro-7,8-diazatricyclo[4.3.0.0^2,^4]nona-1(6),8-dien-7-yl]acetamide], in data set [1], the cytotoxic concentration (CC50) at 4 days is over 20 nM. For the same compound, the EC50 in data set [2] was determined as 0.012 nM.
